Reference: article PMC6406325, “ATP- and Polyphosphate-Dependent Glucokinases from Aerobic Methanotrophs” (Microorganisms, 2019)
Values belong to the compound of their own block, whether it stands above or below them.

What was measured:
Assay type in all cases: biochemical, Methylomonas sp. 12
[1] = target: T1, ATP-Glk (Methylomonas sp., UniProt A0A3G4RI75); experiment: effect on glucokinase activity with ATP and glucose
T1 construct: full-length, His6-tagged (N-terminal), pET30(a)+ in E. coli Rosetta (DE3), Ni-NTA; gene 990 bp; di- to hexamers
T1 sequence (A0A3G4RI75 1-329): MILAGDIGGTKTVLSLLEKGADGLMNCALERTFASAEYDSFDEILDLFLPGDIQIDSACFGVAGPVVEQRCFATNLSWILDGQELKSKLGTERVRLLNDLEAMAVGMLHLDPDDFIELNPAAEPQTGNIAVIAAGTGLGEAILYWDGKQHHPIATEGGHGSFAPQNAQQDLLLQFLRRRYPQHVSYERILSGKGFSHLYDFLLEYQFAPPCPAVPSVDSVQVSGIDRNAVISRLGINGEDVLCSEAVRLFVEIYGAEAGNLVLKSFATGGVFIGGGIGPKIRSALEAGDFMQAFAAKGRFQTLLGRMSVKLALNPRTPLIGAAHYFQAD
Description: effect on glucokinase activity with ATP and glucose on ATP-Glk

[2] = target: T2, polyP-Glk (Methylomonas sp., UniProt A0A3G4RHV5); experiment: effect on glucokinase activity with polyP and glucose; conditions: polyP (n=45) and glucose as substrates; activator, not a phosphoryl donor; ATP concentration not printed in table (10 mM elsewhere in the source)
T2 construct: gene pglk; full-length, His6-tagged (N-terminal), E. coli Rosetta (DE3), Ni-NTA; gene 795 bp; dimer with polyP
T2 sequence (A0A3G4RHV5 1-264): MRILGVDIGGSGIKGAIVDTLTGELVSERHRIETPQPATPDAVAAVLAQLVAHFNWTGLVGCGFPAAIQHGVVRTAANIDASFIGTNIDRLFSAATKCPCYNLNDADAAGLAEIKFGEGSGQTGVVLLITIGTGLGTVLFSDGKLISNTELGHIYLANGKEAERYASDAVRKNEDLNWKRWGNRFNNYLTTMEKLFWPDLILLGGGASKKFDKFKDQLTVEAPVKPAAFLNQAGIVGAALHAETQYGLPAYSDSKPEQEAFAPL
Description: effect on glucokinase activity with polyP and glucose on polyP-Glk

[3] = target: T1, ATP-Glk; experiment: glucose 6-phosphate dehydrogenase coupled NADP+ reduction at […] nm; conditions: saturating ATP; Mg2+; pH 7.5; 30 °C
[4] = target: T2, polyP-Glk; experiment: as above; conditions: saturating polyP (n=45); Mg2+; pH 8.5; 28 °C
[5] = tested on: T3, Nc1ncnc2c1ncn2[C@@H]1O[C@H](COP(=O)(O)OP(=O)(O)OP(=O)(O)O)[C@@H](O)[C@H]1O; experiment: purified protein; conditions: saturating glucose, Mg2+, pH 7.5, 30 °C
T3 construct: full-length, His6-tagged (N-terminal), pET30(a)+ in E. coli Rosetta (DE3), Ni-NTA; gene 990 bp; di- to hexamers

activity at 5000 µM [1]: 48.9%
Compound: Nc1ncnc2c1ncn2[C@@H]1O[C@H](COP(=O)(O)OP(=O)(O)O)[C@@H](O)[C@H]1O [ADP]

PolyP-Glk ** [2]: 155.0%
Compound: Nc1ncnc2c1ncn2[C@@H]1O[C@H](COP(=O)(O)OP(=O)(O)OP(=O)(O)O)[C@@H](O)[C@H]1O [ATP]

Km [3]: 80 ± 7 µM
Km [4]: 450 ± 120 µM
Compound: OC[C@H]1OC(O)[C@H](O)[C@@H](O)[C@@H]1O (stereo partly shown) [glucose]

Compound: ATP-Glk (Methylomonas methanica)
Km [5]: 78 ± 5.6 µM
kcat [5]: 0.126 s⁻¹
kcat/Km [5]: 1610 M⁻¹ s⁻¹
